# How the values were obtained:
# [1] = system: Peroxisome proliferator activated receptor alpha (PPAR α); assay: Real-time PCR gene expression in peripheral tissues: PPAR α; assay type: in vivo; settings: proximal intestine; C57bl6j mice, high fat diet, 100 mg/kg/body weight in diet, 5 weeks
# Procedure: (§1) The expression of 45 genes was measured by real-time PCR in peripheral tissues to identify genes that were differentially expressed in response to oral administration of oleoylethanolamide (OEA) or a non-hydrolysable OEA analog (KDS 5104), which affect satiety, lipid metabolism, fat utilization, food intake, and body fat mass.
# (§2) Animals, diet, and experimental design. Adult male C57bl6j mice purchased at 8 weeks of age were individually housed and maintained ad libitum on high fat diet and water for 2 weeks. Seven mice were randomly allocated in 3 groups and fed with a high fat diet (lipids represented 50% of daily energy) for 2 weeks. […]
# (§3) RNA extraction and gene expression. […] The RNA concentration was determined on nanodrop from the absorbance at 260 nm. […] Real-time quantitative PCR (RT-qPCR) were performed on cDNA obtained as described above using a high through put system (Biomek 3000, Beckman & Coulter, Fullerton, USA) and a Lightcycler 480 (Roche/Hitachi, Basel, Switzerland) with SYBR Green Master mix+kit (Eurogentec, Philadelphia, USA). […] Values were expressed as ratio of RNA levels relative to control mice (diets with 0 mg of OEA/kg/body weight) using ΔΔ(Ct) (Livak K J & Schmittgen T D, 2001, Methods 25:402-8). Gene expression of the following genes was measured (abbreviation and GenBank Accession shown in parentheses). […]
# [2] = system: Visfatin; assay: Real-time PCR gene expression in peripheral tissues: visfatin; assay type: in vivo; settings: C57bl6j mice, high fat diet, 100 mg/kg/body weight in diet, 5 weeks
# Procedure: as §1
# (§4) Animals, diet, and experimental design. Adult male C57bl6j mice purchased at 8 weeks of age were individually housed and maintained ad libitum on high fat diet and water for 2 weeks. Seven mice were randomly allocated in 3 groups and fed with a high fat diet (lipids represented 50% of daily energy) for 2 weeks. For one kilogram, the composition of the high fat diet was: 235 g casein, 201 g saccharose, 3.5 g L-cystine, 85 g starch, 116 g maltodextrin, 60 g cellulose, 12 g vitamins mix (AIN-93M, UPAE, Jouy-en-Josas, France), 51.5 g mineral mix (AIN-93Vx, UPAE, Jouy-en-Josas, France), and 236 g lard. Then, either OEA or KDS 5104 was added to the diet at a concentration of 100 mg/kg/body weight. The mice were kept under treatment for 5 weeks.
# (§5) Sampling. At the end of the experimental period, mice were sacrificed by blood drawing (cardiac puncture) after anesthesia with isoflurane. Plasma was obtained by centrifugation (1,000 g for 10 min at 4° C.). Mesenteric, epididymal, inguinal and peritoneal adipose depots, as well as liver, stomach, small intestine mucosa, pancreas, and gastrocnemian muscle were removed and frozen into liquid nitrogen. Plasma, urine, feces, and organ samples were kept at −80° C. until analysis.
# (§6) RNA extraction and gene expression. Total RNA from liver, intestine mucous membrane, adipose tissues, gastrocnemian muscle, pancreas and stomach were extracted with TRIzol reagent (Invitrogen, Carlsbad, USA) according to the manufacturer's instruction. The RNA concentration was determined on nanodrop from the absorbance at 260 nm. […] Real-time quantitative PCR (RT-qPCR) were performed on cDNA obtained as described above using a high through put system (Biomek 3000, Beckman & Coulter, Fullerton, USA) and a Lightcycler 480 (Roche/Hitachi, Basel, Switzerland) with SYBR Green Master mix+kit (Eurogentec, Philadelphia, USA). […] Values were expressed as ratio of RNA levels relative to control mice (diets with 0 mg of OEA/kg/body weight) using ΔΔ(Ct) (Livak K J & Schmittgen T D, 2001, Methods 25:402-8). Gene expression of the following genes was measured (abbreviation and GenBank Accession shown in parentheses).
# (§7) Statistical analysis. […] Daily food intake was analyzed using two-way ANOVA on Statview software. […] For statistical analysis of the gene expression data, values were calculated relative to 18S expression for each mouse and gene.
# [3] = system: Sterol regulatory element binding protein-C 2 (SREBP2 1); assay: Real-time PCR gene expression in peripheral tissues: SREBP2; assay type: in vivo; settings: liver; C57bl6j mice, high fat diet, 100 mg/kg/body weight in diet, 5 weeks
# Procedure: as §1, §2, §3
# [4] = system: Glucose transporter 4 (Glut 4); assay: Real-time PCR gene expression in peripheral tissues: Glut 4; assay type: in vivo; settings: muscle; C57bl6j mice, high fat diet, 100 mg/kg/body weight in diet, 5 weeks
# Procedure: as §1, §2, §3
# [5] = system: Ghrelin; assay: Real-time PCR gene expression in peripheral tissues: ghrelin; assay type: in vivo; settings: stomach; C57bl6j mice, high fat diet, 100 mg/kg/body weight in diet, 5 weeks
# Procedure: as §1, §2, §3
# [6] = system: CPT1; assay: Real-time PCR gene expression in peripheral tissues: CPT1; assay type: in vivo; settings: C57bl6j mice, high fat diet, 100 mg/kg/body weight in diet, 5 weeks
# Procedure: as §1, §4, §5
# (§8) RNA extraction and gene expression. Total RNA from liver, intestine mucous membrane, adipose tissues, gastrocnemian muscle, pancreas and stomach were extracted with TRIzol reagent (Invitrogen, Carlsbad, USA) according to the manufacturer's instruction. The RNA concentration was determined on nanodrop from the absorbance at 260 nm. Retro-transcription PCRs to synthesize cDNA were performed using an Applied Biosystem Thermal Cycler 2720 and Superscript II (Invitrogen, Carlsbad, USA) according to manufacturer's protocol. Real-time quantitative PCR (RT-qPCR) were performed on cDNA obtained as described above using a high through put system (Biomek 3000, Beckman & Coulter, Fullerton, USA) and a Lightcycler 480 (Roche/Hitachi, Basel, Switzerland) with SYBR Green Master mix+kit (Eurogentec, Philadelphia, USA). Primers for the selected genes were generated using online informatics assistance from the Lightcycler manufacturer (Roche). Databases used to identify the genes were (1) the NCBI database (GenBank) and (2) the IHOP (Information Hyperlinked over Protein) database (www.ihop-net.org/UniPub/iHOP/bng/). Values were expressed as ratio of RNA levels relative to control mice (diets with 0 mg of OEA/kg/body weight) using ΔΔ(Ct) (Livak K J & Schmittgen T D, 2001, Methods 25:402-8). Gene expression of the following genes was measured (abbreviation and GenBank Accession shown in parentheses).
# (§9) Statistical analysis. […] Statistical analysis of physiological parameters and gene expression data was performed by one-way ANOVA on Statview software (SAS Institute, Cary, USA). Daily food intake was analyzed using two-way ANOVA on Statview software. Statistical significance was set up at the P<0.05 level, the P<0.01 level and the P<0.001 level. For statistical analysis of the gene expression data, values were calculated relative to 18S expression for each mouse and gene.
# [7] = system: Protein convertase subtilisin/kexin type 9 (PCSK 9); assay: Real-time PCR gene expression in peripheral tissues: PCSK9; assay type: in vivo; settings: liver; C57bl6j mice, high fat diet, 100 mg/kg/body weight in diet, 5 weeks
# Procedure: as §1, §2, §3
# [8] = system: Fatty acid transporter/cluster of differentiation 36 (FAT/CD 36); assay: Real-time PCR gene expression in peripheral tissues: FAT/CD36; assay type: in vivo; settings: C57bl6j mice, high fat diet, 100 mg/kg/body weight in diet, 5 weeks
# Procedure: as §1, §4, §5, §8
# Statistical analysis. Results are presented as means±standard error of the means (SEM). Statistical analysis of physiological parameters and gene expression data was performed by one-way ANOVA on Statview software (SAS Institute, Cary, USA). Daily food intake was analyzed using two-way ANOVA on Statview software. Statistical significance was set up at the P<0.05 level, the P<0.01 level and the P<0.001 level. For statistical analysis of the gene expression data, values were calculated relative to 18S expression for each mouse and gene.
# [9] = target: T1, PPAR α (Mus musculus, UniProt P23204); settings: wild-type and PPAR α (−/−) mice; cited from earlier work
# T1 construct: host or cells: wild-type mice (endogenous protein)
# T1 sequence (P23204 whole entry): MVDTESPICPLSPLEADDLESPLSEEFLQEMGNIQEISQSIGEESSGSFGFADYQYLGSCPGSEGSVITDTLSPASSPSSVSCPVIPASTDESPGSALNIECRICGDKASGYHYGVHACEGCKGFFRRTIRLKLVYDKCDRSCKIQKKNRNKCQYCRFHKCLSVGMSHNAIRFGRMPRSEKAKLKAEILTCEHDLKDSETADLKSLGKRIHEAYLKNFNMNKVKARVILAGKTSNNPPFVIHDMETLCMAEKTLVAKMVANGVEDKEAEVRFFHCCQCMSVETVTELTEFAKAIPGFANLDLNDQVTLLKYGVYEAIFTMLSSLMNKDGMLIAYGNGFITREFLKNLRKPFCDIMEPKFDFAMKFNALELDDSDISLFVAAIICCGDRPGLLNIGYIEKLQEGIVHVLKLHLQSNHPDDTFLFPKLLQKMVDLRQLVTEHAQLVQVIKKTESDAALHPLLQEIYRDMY
# [10] = system: Leptin; assay: Real-time PCR gene expression in peripheral tissues: leptin; assay type: in vivo; settings: C57bl6j mice, high fat diet, 100 mg/kg/body weight in diet, 5 weeks
# Procedure: as §1, §4, §5, §8, §9
# [11] = system: Adiponectin; assay: Real-time PCR gene expression in peripheral tissues: adiponectin; assay type: in vivo; settings: C57bl6j mice, high fat diet, 100 mg/kg/body weight in diet, 5 weeks
# Procedure: as §1, §4, §5, §6, §7
compound,measurement,setting,value
"CCCCCCCC/C=C\CCCCCCCC(=O)NCCO [OEA, N-oleoyl-ethanolamide]","PPAR α i, ratio of RNA levels relative to control mice",[1],1.20
same,"visfatin at ep, ratio of RNA levels relative to control mice",[2]; epidydimal adipose tissue,−1.55
same,"visfatin at per, ratio of RNA levels relative to control mice",[2]; peritoneal adipose tissue,−1.80
same,"SREBP2 l, ratio of RNA levels relative to control mice",[3],1.22
same,"Glut 4 m, ratio of RNA levels relative to control mice",[4],3.27
same,"ghrelin s, ratio of RNA levels relative to control mice",[5],1.98
same,"CPT1 l, ratio of RNA levels relative to control mice",[6]; liver,1.74
same,"CPT1 p, ratio of RNA levels relative to control mice",[6]; pancreas,1.35
same,"CPT1 i, ratio of RNA levels relative to control mice",[6]; proximal intestine,2.00
same,"PCSK9 l, ratio of RNA levels relative to control mice",[7],1.44
same,"FAT/CD36 at ep, ratio of RNA levels relative to control mice",[8]; epidydimal adipose tissue,−1.88
same,"FAT/CD36 l, ratio of RNA levels relative to control mice",[8]; liver,1.45
same,"FAT/CD36 at per, ratio of RNA levels relative to control mice",[8]; peritoneal adipose tissue,−1.81
same,"FAT/CD36 i, ratio of RNA levels relative to control mice",[8]; proximal intestine,1.61
same,"food intake, wild-type vs PPAR α (−/−) mice",[9],regulates food intake in wild-type mice but not in PPAR α (−/−) mice
same,"leptin at ep, ratio of RNA levels relative to control mice",[10]; epidydimal adipose tissue,1.22
same,"leptin at per, ratio of RNA levels relative to control mice",[10]; peritoneal adipose tissue,3.44
same,"leptin s, ratio of RNA levels relative to control mice",[10]; stomach,1.41
same,"adiponectin at ep, ratio of RNA levels relative to control mice",[11]; epidydimal adipose tissue,−1.14
same,"adiponectin at per, ratio of RNA levels relative to control mice",[11]; peritoneal adipose tissue,−2.08
